# Reference: US20250186541A1, “DLL3 TARGETING PEPTIDES AND CONSTRUCTS THEREOF” (MARIANA ONCOLOGY INC., priority 2023, published 2025)
# Numbered stars: 1 amine (or outer) side, 2 acyl side, 3 side chain; on linkers, the order of the positions; unused ones are H or OH. Bridge positions count the residues as written; N and C are the ends. Square brackets hold non-standard residues; d marks the D form. Peptide text beside a SMILES is read from it. * marks the point of attachment. Ala(piperidin-4-yl) = O=C([C@H](CC1CCN([*:3])CC1)N[*:1])[*:2]; DOTA = O=C(O)CN1CCN(CC(=O)O)CCN(CC(=O)*)CCN(CC(=O)O)CC1; Phe(4-CH2NH2) = NCc1ccc(C[C@H](N)C(=O)O)cc1; 1Nal = N[C@@H](Cc1cccc2ccccc12)C(=O)O; 2Nal = N[C@@H](Cc1ccc2ccccc2c1)C(=O)O; Phe(2-Me) = Cc1ccccc1C[C@H](N)C(=O)O; tBuAla = CC(C)(C)C[C@H](N)C(=O)O; αMeD = C[C@](N)(CC(=O)O)C(=O)O; Chg = N[C@H](C(=O)O)C1CCCCC1; αMeP = C[C@@]1(C(=O)O)CCCN1; NMeS = CN[C@@H](CO)C(=O)O; Ahx = NCCCCCC(=O)O
# Columns and labels:
# [1] = target: T1, human DLL3 (Homo sapiens, UniProt Q9NYJ7); experiment: Affinity determination by Surface Plasmon Resonance (SPR), Biacore, 1:1 binding model; conditions: biotinylated human DLL3 on streptavidin chip, 25° C.; NB = nonbinding
# T1 construct: biotin (biotinylated)
# T1 sequence (Q9NYJ7 27-618): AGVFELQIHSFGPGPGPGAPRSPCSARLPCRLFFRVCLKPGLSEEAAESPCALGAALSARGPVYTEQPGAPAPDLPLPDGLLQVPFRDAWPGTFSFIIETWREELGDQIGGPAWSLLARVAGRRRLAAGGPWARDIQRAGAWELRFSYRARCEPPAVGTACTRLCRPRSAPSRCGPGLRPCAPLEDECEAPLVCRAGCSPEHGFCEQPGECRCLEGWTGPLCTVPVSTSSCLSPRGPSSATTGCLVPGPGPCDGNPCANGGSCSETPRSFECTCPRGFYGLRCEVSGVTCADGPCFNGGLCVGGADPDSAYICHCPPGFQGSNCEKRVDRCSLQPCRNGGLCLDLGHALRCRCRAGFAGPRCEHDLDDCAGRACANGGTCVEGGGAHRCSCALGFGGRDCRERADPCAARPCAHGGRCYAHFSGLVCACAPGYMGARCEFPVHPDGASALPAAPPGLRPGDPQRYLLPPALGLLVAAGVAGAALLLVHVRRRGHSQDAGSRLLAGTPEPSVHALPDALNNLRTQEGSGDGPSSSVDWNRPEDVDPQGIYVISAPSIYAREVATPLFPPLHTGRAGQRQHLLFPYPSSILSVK
# Summary of the method: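 SPR with biotinylated human DLL3 captured on a streptavidin chip, with a reference surface subtracted. Samples were injected at several concentrations at 100 μL/min in phosphate buffer with 137 mM NaCl, 2.7 mM KCl, 0.05% P20 and 2% DMSO. Kinetic and affinity constants came from a 1:1 binding fit.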
# [2] = test system: SHP-77 cells; experiment: Cell binding (total uptake) of [177Lu]Lu-labeled peptide, gamma counter bound fraction; format: cell-based, human; conditions: [177Lu]Lu-test peptide, 1 h, 37° C., 1% PBSA
# Protocol: (§1) Example 4. Cell Binding, Internalization, and Radiolabeling of Targeting Moieties Polypeptides General Procedure for Radiolabeling of RPTs with [^177Lu]LuCl3
# (§2) [^177Lu]LuCl3 was received from venders in HCl solution. For every mCi of [^177Lu]LUCl3 added to the reaction vial (1.5 mL Eppendorf vial), ammonium acetate buffer (0.2 M, pH 4.9, 100 μL, containing 1% w/v ascorbic acid and 6% v/v ethanol) and peptide conjugate (1 nmol) was added. The pH of the solution was determined to be approximately 5 by using pH strips. The reaction vial was incubated at 80° C., 700 RPM for 17-20 minutes. A sample from the reaction was analyzed by RP-HPLC using an Agilent Infinity II 1260 HPLC to determine reaction completion and radiochemical purity. HPLC conditions: Waters XBridge BEH […] Column, 130 Å, 3.5 um, 4.6 mm×250 mm; mobile phase: Solvent A=water (with 0.1% formic acid), solvent B=acetonitrile (with 0.1% formic acid). Gradients: 25-45% B in 10 minutes, 45-65% B in 12 minutes, 65-90% in 6 minutes at a flow rate of 0.5 mL/min. Required amounts of the product was formulated in 1% PBSA for cell studies.
# (§3) The study was conducted using SHP-77cells (Table 7) Adherent cell studies: The cells were cultured in appropriate culture media (20 mL) in tissue culture treated T150 flasks at 37° C. and 5% CO2. Adherent cells were detached (60-70% confluent) using 5 mL Versene at 37° C. for 3 min. After confirming the viability using countess and count of detached cells using Trypan blue, the cells were centrifuged at 4° C. for 5 minutes (1,000 rpm). The cell pellet obtained was washed once with PBS and resuspended in 1% PBSA to obtain the desired cell concentration (5-25 million cells/mL).
# as §3, with “Suspension” for “The study was conducted using SHP-77cells (Table 7) Adherent”, “CO2.” for “CO2. Adherent cells were detached (60-70% confluent) using 5 mL Versene at 37° C. for 3 min.”, “viability” for “viability using countess”
# (§4) Cell numbers used for the assay were in the range of 5 million cells/condition −25 million cells/condition.
# Total uptake: Cells were incubated with 300 μL (0.8 μCi) of the incubation buffer (containing radiolabeled peptide [^177Lu]Lu-test peptide) for 1 hour at 37 C (Table 8). Post incubation, the cells were pelleted and washed 2 times using cold PBS+1% BSA. The supernatant and washes were combined and counted together as “unbound fraction” in a gamma counter. The cells were then resuspended in 300 μL of 1% PBS+1% BSA and counted in the gamma counter as “bound fraction”.
# (§5) SHP-77 cells are human-derived, non-engineered SCLC cells.
# [3] = test system: SHP-77 cells; experiment: Internalization of [177Lu]Lu-labeled peptide after glycine acid wash, gamma counter internalized fraction; format: cell-based, human; conditions: [177Lu]Lu-test peptide, 1 h, 37° C., acid wash 50 mM Glycine pH 2.5
# Protocol: as §1, §2, §3
# as §3, with “Suspension” for “The study was conducted using SHP-77cells (Table 7) Adherent”, “CO2.” for “CO2. Adherent cells were detached (60-70% confluent) using 5 mL Versene at 37° C. for 3 min.”, “viability” for “viability using countess”
# as §4
# Internalization: The resuspended cells in 300 μl of 1% PBSA and counted in the gamma counter as “bound fraction” were collected in 1.5 ml Eppendorf tube and pelleted. The pelleted cells were incubated with 300 μl of 50 mM Glycine pH=2.5 for 3 minutes and then pelleted discarding the supernatant. This process was repeated one more time. The pelleted cells were washed with 300 μl of cold 1% PBSA and then resuspended in 300 μl 0.3M NaOH. This was counted in the gamma counter as “internalized fraction”.
# as §5
SMILES,Kd [1] [nM],% Binding [2] [%],% Internalization (out of bound fraction) [3] [%]
"CC(=O)N[C@H](C)C(=O)N[C@@H](CO)C(=O)N[C@@H](CC(=O)O)C(=O)N[C@H]1CSSC[C@@H](C(=O)N2CCC[C@@]2(C)C(=O)N[C@@H](Cc2ccccc2)C(=O)N[C@@H](CC(=O)O)C(N)=O)NC(=O)[C@H](CC(N)=O)NC(=O)[C@H](Cc2ccc3ccccc3c2)NC(=O)[C@H](Cc2ccc(CNC(=O)CN3CCN(CC(=O)O)CCN(CC(=O)O)CCN(CC(=O)O)CC3)cc2)NC(=O)[C@H](CC(C)(C)C)NC(=O)[C@H](Cc2cccc3ccccc23)NC1=O [Cpd #158, Ac-(D-Ala)-S-D-C(3)-(1Nal)-(t-Bu-Ala)-[PAF(DOTA)]-(2Nal)-N-C(3)-(aMe-P)-F -D-CONH2] (Ac-[dA]SDC[1Nal][tBuAla][Phe(4-CH2NH2)](DOTA)[2Nal]NC[αMeP]FD-NH2; disulfide 4-10)",0.12,25,63
"CC(=O)N[C@H](C)C(=O)N[C@@H](CO)C(=O)N[C@@](C)(CC(=O)O)C(=O)N[C@H]1CSSC[C@@H](C(=O)N2CCC[C@@]2(C)C(=O)N[C@@H](Cc2ccccc2)C(=O)N[C@@H](CC(=O)O)C(=O)N[C@H](CCCCNC(=O)CN2CCN(CC(=O)O)CCN(CC(=O)O)CCN(CC(=O)O)CC2)C(N)=O)NC(=O)[C@H](CC(N)=O)NC(=O)[C@H](Cc2ccc3ccccc3c2)NC(=O)[C@H](CCC(N)=O)NC(=O)[C@H](CC(C)(C)C)NC(=O)[C@H](Cc2cccc3ccccc23)NC1=O [Cpd #168, Ac-(D-Ala)-S-(aMe-Asp)-C(3)-(1Nal)-(t-Bu-Ala)-Q-(2Nal)-N-C(3)-(aMe-P)-F-D-[D-Lys(DOTA)]-NH2] (Ac-[dA]S[αMeD]C[1Nal][tBuAla]Q[2Nal]NC[αMeP]FD[dK](DOTA)-NH2; disulfide 4-10)",0.026,8,59
"CC(=O)N[C@H](C(=O)N[C@@H](CO)C(=O)N[C@@H](CC(=O)O)C(=O)N[C@H]1CSSC[C@@H](C(=O)N2CCC[C@@]2(C)C(=O)N[C@@H](Cc2ccccc2)C(=O)N[C@@H](CC(=O)O)C(=O)N[C@H](CCCCNC(=O)CN2CCN(CC(=O)O)CCN(CC(=O)O)CCN(CC(=O)O)CC2)C(N)=O)NC(=O)[C@H](CC(N)=O)NC(=O)[C@H](Cc2ccc3ccccc3c2)NC(=O)[C@H](CCC(N)=O)NC(=O)[C@H](C2CCCCC2)NC(=O)[C@H](Cc2cccc3ccccc23)NC1=O)C1CCCCC1 [compound 125, Ac-(Chg)-S-D-C(3)-(1Nal)-(Chg)-Q-(2Nal)-N-C(3)-(aMe-P)-F-D-D-Lys(DOTA)-CONH2] (Ac-[Chg]SDC[1Nal][Chg]Q[2Nal]NC[αMeP]FD[dK](DOTA)-NH2; disulfide 4-10)",0.16,17,51
"Cc1ccccc1C[C@H](NC(=O)[C@]1(C)CCCN1C(=O)[C@@H]1CSSC[C@H](NC(=O)[C@H](CC(=O)O)NC(=O)[C@H](CO)NC(=O)[C@@H](C)NC(=O)CN2CCN(CC(=O)O)CCN(CC(=O)O)CCN(CC(=O)O)CC2)C(=O)N[C@@H](Cc2cccc3ccccc23)C(=O)N[C@@H](CC(C)(C)C)C(=O)N[C@@H](CCC(N)=O)C(=O)N[C@@H](Cc2ccc3ccccc3c2)C(=O)N[C@@H](CC(N)=O)C(=O)N1)C(=O)N[C@@H](CC(=O)O)C(N)=O [compound 154, DOTA-(D-Ala)-S-D-C(3)-(1Nal)-(t-Bu-Ala)-Q-(2Nal)-N-C(3)-(aMe-P)-(2Me-F)-D-CONH2] ({DOTA}-[dA]SDC[1Nal][tBuAla]Q[2Nal]NC[αMeP][Phe(2-Me)]D-NH2; disulfide 4-10)",0.18,10,58
"CC(=O)N[C@H](C)C(=O)N[C@@H](CO)C(=O)N[C@@H](CC(=O)O)C(=O)N[C@H]1CSSC[C@@H](C(=O)N2CCC[C@@]2(C)C(=O)N[C@@H](Cc2ccccc2)C(=O)N[C@@H](CC(=O)O)C(=O)N[C@H](CCCCNC(=O)CN2CCN(CC(=O)O)CCN(CC(=O)O)CCN(CC(=O)O)CC2)C(N)=O)NC(=O)[C@H](CC(=O)O)NC(=O)[C@H](Cc2ccc3ccccc3c2)NC(=O)[C@H](C)NC(=O)[C@H](CC(C)(C)C)NC(=O)[C@H](Cc2cccc3ccccc23)NC1=O [compound 166, Ac-(D-Ala)-S-D-C(3)-(1Nal)-(t-Bu-Ala)-Ala-(2Nal)-D-C(3)-(aMe-P)-F-D-[D-Lys(DOTA)]-NH2] (Ac-[dA]SDC[1Nal][tBuAla]A[2Nal]DC[αMeP]FD[dK](DOTA)-NH2; disulfide 4-10)",0.049,7,58
"CC(C)(C)C[C@@H]1NC(=O)[C@H](Cc2cccc3ccccc23)NC(=O)[C@@H](NC(=O)[C@H](CC(=O)O)NC(=O)[C@H](CO)NC(=O)CCCCCNC(=O)CN2CCN(CC(=O)O)CCN(CC(=O)O)CCN(CC(=O)O)CC2)CSSC[C@@H](C(=O)N2CCC[C@@]2(C)C(=O)N[C@@H](Cc2ccccc2)C(=O)N[C@@H](CC(=O)O)C(N)=O)NC(=O)[C@H](CC(N)=O)NC(=O)[C@H](Cc2ccc3ccccc3c2)NC(=O)[C@H](CC2CCNCC2)NC1=O [compound 176, DOTA-Ahx-S-D-C(3)-(1Nal)-(t-Bu-Ala)-[3-(4-piperidinyl)-Ala]-(2Nal)-N-C(3)-(aMe-P)-F -D-CONH2] ({DOTA-Ahx}-SDC[1Nal][tBuAla][Ala(piperidin-4-yl)][2Nal]NC[αMeP]FD-NH2; disulfide 3-9)",0.047,6,53
"CC(=O)N[C@@H](CC1CCNCC1)C(=O)N(C)[C@@H](CO)C(=O)N[C@@H](CC(=O)O)C(=O)N[C@H]1CSSC[C@@H](C(=O)N2CCC[C@@]2(C)C(=O)N[C@@H](Cc2ccccc2)C(=O)N[C@@H](CC(=O)O)C(N)=O)NC(=O)[C@H](CC(N)=O)NC(=O)[C@H](Cc2ccc3ccccc3c2)NC(=O)[C@H](Cc2ccc(CNC(=O)CN3CCN(CC(=O)O)CCN(CC(=O)O)CCN(CC(=O)O)CC3)cc2)NC(=O)[C@H](CC(C)(C)C)NC(=O)[C@H](Cc2cccc3ccccc23)NC1=O [compound 191, Ac-[3-(4-piperidinyl)-Ala]-(NMe-Ser)-D-C(3)-(1Nal)-(t-Bu-Ala)-[PAF(DOTA)]-(2Nal)-N-C(3)-(aMe-P)-F-D-CONH2] (Ac-[Ala(piperidin-4-yl)][NMeS]DC[1Nal][tBuAla][Phe(4-CH2NH2)](DOTA)[2Nal]NC[αMeP]FD-NH2; disulfide 4-10)",0.21,10,48
